# Test results published in patent publication US9163027B2, “Substituted triazolo-pyrimidine compounds for modulating cell proliferation differentiation and survival” (STATegics, Inc., priority 2012, dated 2015).
# Test system: PC12 cells
# Assay: PC12 cell survival under serum deprivation (CellTiter-Glo)
# Format: cell-based, rat
# Conditions: 72 h serum-free; NS = RLU increased <25% at 5 uM
# Description: Each culture condition was performed in quadruplicate in each experiment and the mean values were calculated. The results represent mean±SEM of relative light unit values when compared to the mean values obtained in the presence of the medium alone. A total of 13 experiments were performed and the statistical significance was analyzed using GraphPad Prism software using ANOVA, followed by paired t-test. The symbol * indicates P-values <0.01.
# PC12 cells were cultured in DMEM supplemented with 10% fetal calf serum and 5% horse serum. […] Cell viability was analyzed by CellTiter-Glo® reagent (Promega).
# PC12 cells were cultured in DMEM supplemented with 10% fetal calf serum and 5% horse serum. […] Cell survival of the serum-starved cells was analyzed by CellTiter-Glo® reagent luminescence reading.
# FIG. 2 illustrates neuroprotective effects of Compounds 1-5 when tested in PC12 cell protection assays. PC12 cells were subjected to serum deprivation as described under FIG. 1.
# PC12 cells were cultured in DMEM supplemented with 10% fetal calf serum and 5% horse serum. […] Cell survival of the serum-starved cells was analyzed by CellTiter-Glo® reagent luminescence reading (relative light units, “RLU”). […] “NS” indicates RLU increased <25% when compounds were tested at 5 uM.
row,SMILES,PC12 cell proliferation (CellTiter-Glo ®) Concentration at which RLU increased >25% compared to medium control
1,"Cc1cc(C)n2nc(SCCOC3CCCCC3)nc2n1 [Example 33, 2-{[2-(cyclohexyloxy)ethyl]sulfanyl}-5,7-dimethyl-[1,2,4]triazolo[1,5-a]pyrimidine]",NS (RLU increased <25% when compounds were tested at 5 uM)
2,"Cc1cc(C)n2nc(SCCOc3ccncc3)nc2n1 [Example 31, 4-[2-({5,7-dimethyl-[1,2,4]triazolo[1,5-a]pyrimidin-2-yl}sulfanyl)ethoxy]pyridine]",NS (RLU increased <25% when compounds were tested at 5 uM)
3,"Cc1cc(C)n2nc(SCCOc3ccc(CCN(C)C)cc3)nc2n1 [Example 32, (2-{4-[2-({5,7-dimethyl-[1,2,4]triazolo[1,5-a]pyrimidin-2-yl}sulfanyl)ethoxy]phenyl}ethyl)-dimethylamine]",NS (RLU increased <25% when compounds were tested at 5 uM)
4,Cc1cc(C)n2nc(SCCOc3ccc(F)c(Cl)c3)nc2n1 [Example 6],<5 µM

# Same assay, conditions: Rattus norvegicus, PC-12; 72 h serum-free; NS = RLU increased <25% at 5 uM; read-out: PC12 cell proliferation (CellTiter-Glo ®) Concentration at which RLU increased >25% compared to medium control
row,SMILES,minimal effective concentration [µM]
1,"CCc1cc(CC)n2nc(OCCN(CCO)c3ccc(F)cc3)nc2n1 [Example 14, 2-{[2-({5,7-diethyl-[1,2,4]triazolo[1,5-a]pyrimidin-2-yl}oxy)ethyl](4-fluorophenyl)amino}ethan-1-ol]",< 5
2,"Clc1ccc(OCCSc2nc3ncccn3n2)cc1 [Example 25, 2-{[2-(4-chlorophenoxy)ethyl]sulfanyl}-[1,2,4]-triazolo[1,5-a]pyrimidine]",< 5
3,"CCc1cc(CC)n2nc(OCCN(CCO)c3ccccc3)nc2n1 [Example 17, 2-{[2-({5,7-Diethyl-[1,2,4]triazolo[1,5-a]pyrimidin-2-yl}oxy)ethyl](phenyl)amino}ethan-1-ol]",< 5
4,"Cc1cc(C(F)(F)F)n2nc(CCCOc3ccc(Cl)cc3)nc2n1 [Example 22, 2-[3-(4-chlorophenoxy)propyl]-5-methyl-7-(trifluoromethyl)-[1,2,4]triazolo[1,5-a]pyrimidine]",< 5
5,"CCc1cc(CC)n2nc(CCCN(CCOC(C)=O)c3ccc(F)cc3)nc2n1 [Example 21, 2-[(3-{5,7-diethyl-[1,2,4]triazolo[1,5-a]pyrimidin-2-yl}propyl)(4-fluorophenyl)amino]ethyl acetate]",< 5
6,"Fc1ccc(OCCCc2nc3nc(C(F)F)cc(C(F)F)n3n2)cc1 [Example 30, 5,7-bis(difluoromethyl)-2-[3-(4-fluorophenoxy)propyl]-[1,2,4]triazolo[1,5-a]pyrimidine]",< 5
7,"Cc1cc(C)n2nc(SCCOc3ccc(Cl)c(Cl)c3)nc2n1 [Example 5, 2-{[2-(3,4-dichlorophenoxy)ethyl]sulfanyl}-5,7-dimethyl-[1,2,4]-triazolo[1,5-a]pyrimidine]",< 5
8,"Cc1cc(C)n2nc(SCCc3c[nH]c4ccccc34)nc2n1 [Example 34, 3-[2-({5,7-dimethyl-[1,2,4]triazolo[1,5-a]pyrimidin-2-yl}sulfanyl)ethyl]-1H-indole]",< 5
9,"Cc1cc(C)n2nc(SCCOc3ccc(Cl)c(F)c3)nc2n1 [Example 4, 2-{[2-(4-chloro-3-fluorophenoxy)ethyl]sulfanyl}-5,7-dimethyl-[1,2,4]triazolo[1,5-a]pyrimidine]",< 5
10,"CCc1cc(CC)n2nc(CCCN(CCO)c3ccc(F)cc3)nc2n1 [Example 20, 2-[(3-{5,7-diethyl-[1,2,4]triazolo[1,5-a]pyrimidin-2-yl}propyl)(4-fluorophenyl)amino]ethan-1-ol]",< 5
11,"Cc1cc(C)n2nc(NCCOc3ccc(Cl)cc3)nc2n1 [Example 19, N-[2-(4-chlorophenoxy)ethyl]-5,7-dimethyl-[1,2,4]triazolo[1,5-a]pyrimidin-2-amine]",< 5
12,"Cc1cc(C)n2nc(SCCOc3ccc(F)c(F)c3)nc2n1 [Example 7, 2-{[2-(3,4-difluorophenoxy)ethyl]sulfanyl}-5,7-dimethyl-[1,2,4]triazolo[1,5-a]pyrimidine]",< 5
13,"Cc1cc(C(F)(F)F)n2nc(SCCOc3ccc(Cl)cc3)nc2n1 [Example 23, 2-{[2-(4-chlorophenoxy)ethyl]sulfanyl}-5-methyl-7-(trifluoromethyl)-[1,2,4]-triazolo[1,5-a]pyrimidine]",< 5
14,"CCc1cc(CC)n2nc(OCCOc3ccc(F)cc3)nc2n1 [Example 15, 5,7-diethyl-2-[2-(4-fluorophenoxy)ethoxy]-[1,2,4]triazolo[1,5-a]pyrimidine]",< 5
15,"Cc1cc(C)n2nc(SCCOc3ccccc3)nc2n1 [Example 2, 5,7-dimethyl-2-[(2-phenoxyethyl)sulfanyl]-[1,2,4]-triazolo[1,5-a]pyrimidine]",< 5
16,"Cc1cc(C)n2nc(SCCOc3ccc(F)cc3)nc2n1 [Example 3, 2-{[2-(4-fluorophenoxy)ethyl]sulfanyl}-5,7-dimethyl-[1,2,4]triazolo[1,5-a]pyrimidine]",< 5
17,"Cc1cc(C)n2nc(SCCN(CCO)c3ccccc3)nc2n1 [Example 9, 2-{[2-({5,7-Dimethyl-[1,2,4]triazolo[1,5-a]pyrimidin-2-yl}sulfanyl)ethyl](phenyl)amino}ethan-1-ol]",< 5
18,"Cc1ccn2nc(SCCOc3ccc(Cl)cc3)nc2n1 [Example 26, 2-{[2-(4-chlorophenoxy)ethyl]sulfanyl}-5-methyl-[1,2,4]triazolo[1,5-a]pyrimidine]",< 5
19,"Cc1cc(C)n2nc(OCCSc3ccc(Cl)cc3)nc2n1 [Example 35, 2-{2-[(4-chlorophenyl)sulfanyl]ethoxy}-5,7-dimethyl-[1,2,4]triazolo[1,5-a]pyrimidine]",< 5
20,"CCc1ccc(OCCSc2nc3nc(C)cc(C)n3n2)cc1 [Example 8, 2-{[2-(4-ethylphenoxy)ethyl]sulfanyl}-5,7-dimethyl-[1,2,4]triazolo[1,5-a]pyrimidine]",< 5
21,"CC(C)c1cc(C(C)C)n2nc(CCCOc3ccc(F)cc3)nc2n1 [Example 29, 2-[3-(4-fluorophenoxy)propyl]-5,7-bis(propan-2-yl)-[1,2,4]triazolo[1,5-a]pyrimidine]",< 5
22,"CCc1cc(CC)n2nc(NCCOc3ccccc3)nc2n1 [Example 18, 5,7-diethyl-N-(2-phenoxyethyl)-[1,2,4]triazolo[1,5-a]pyrimidin-2-amine]",< 5
23,"Cc1cc(C)n2nc(OCCCC3CCCC3)nc2n1 [Example 12, 2-(3-cyclopentylpropoxy)-5,7-dimethyl-[1,2,4]-triazolo[1,5-a]pyrimidine]",< 5
24,"FC(F)(F)c1cc(C(F)(F)F)n2nc(SCCOc3ccc(Cl)cc3)nc2n1 [Example 24, 2-{[2-(4-chlorophenoxy)ethyl]sulfanyl}-5,7-bis(trifluoromethyl)-[1,2,4]-triazolo[1,5-a]pyrimidine]",< 5
25,"Cc1ccnc2nc(SCCOc3ccc(Cl)cc3)nn12 [Example 27, 2-{[2-(4-chlorophenoxy)ethyl]sulfanyl}-7-methyl-[1,2,4]-triazolo[1,5-a]pyrimidine]",< 5
26,"CCc1cc(CC)n2nc(OCCOc3ccc(Cl)cc3)nc2n1 [Example 16, 5,7-diethyl-2-[-2-(4-chlorophenoxy)ethoxy]-[1,2,4]triazolo[1,5-a]pyrimidine]",< 5
